Measured values reported in patent US8865623B2, “Herbicidally active cyclic diones and derivatives thereof, processes for their preparation, compositions, and method of controlling weeds” (Syngenta Limited, priority 2009, dated 2014).

Assays:
Assay type in all cases: in vivo
[1] = tested on: Echinochloa crus-galli (ECHCG); experiment: Pre-emergence herbicidal activity, glasshouse pot test; details: Echinochloa crus-galli, 312 h; Rate 250 g/ha; pre-emergence spray; evaluated after 13 days; read-out: Pre-emergence activity ECHCG (100=total damage to plant; 0=no damage to plant)
How it was run: (§1)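 Pot-grown plants in standard soil received a spray one day post-sowing (pre-emergence) or after eight days' growth (post-emergence). Scoring took place 13 days later on a 0–100 scale, 100 meaning total damage.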

[2] = tested on: Alopecurus myosuroides (ALOMY); experiment: as above; details: Alopecurus myosuroides, 312 h; Rate 250 g/ha; pre-emergence spray; evaluated after 13 days; read-out: Pre-emergence activity ALOMY (100=total damage to plant; 0=no damage to plant)
How it was run: as §1

Avena fatua (AVEFA) [3] = experiment: as above; details: Avena fatua, 312 h; Rate 250 g/ha; pre-emergence spray; evaluated after 13 days; read-out: Pre-emergence activity AVEFA (100=total damage to plant; 0=no damage to plant)
How it was run: as §1

Lolium perenne (LOLPE) [4] = experiment: as above; details: Lolium perenne, 312 h; Rate 250 g/ha; pre-emergence spray; evaluated after 13 days; read-out: Pre-emergence activity LOLPE (100=total damage to plant; 0=no damage to plant)
How it was run: as §1

[5] = tested on: Echinochloa crus-galli (ECHCG); experiment: Post-emergence herbicidal activity, glasshouse pot test; details: Echinochloa crus-galli, 312 h, rate 250 g/ha, evaluated after 13 days, glasshouse, read-out: Post-emergence activity ECHCG (100=total damage to plant; 0=no damage to plant)
How it was run: as §1

[6] = tested on: Alopecurus myosuroides (ALOMY); experiment: as above; details: Alopecurus myosuroides, 312 h, rate 250 g/ha, evaluated after 13 days, glasshouse, read-out: Post-emergence activity ALOMY (100=total damage to plant; 0=no damage to plant)
How it was run: as §1

Avena fatua (AVEFA) [7] = experiment: as above; details: Avena fatua, 312 h, rate 250 g/ha, evaluated after 13 days, glasshouse, read-out: Post-emergence activity AVEFA (100=total damage to plant; 0=no damage to plant)
How it was run: as §1

Lolium perenne (LOLPE) [8] = experiment: as above; details: Lolium perenne, 312 h, rate 250 g/ha, evaluated after 13 days, glasshouse, read-out: Post-emergence activity LOLPE (100=total damage to plant; 0=no damage to plant)
How it was run: as §1

Structure (SMILES) | pest or weed control at 250 g/ha [1] [%] | pest or weed control at 250 g/ha [2] [%] | pest or weed control at 250 g/ha (Avena fatua (AVEFA) [3]) [%] | pest or weed control at 250 g/ha (Lolium perenne (LOLPE) [4]) [%] | pest or weed control at 250 g/ha [5] [%] | pest or weed control at 250 g/ha [6] [%] | pest or weed control at 250 g/ha (Avena fatua (AVEFA) [7]) [%] | pest or weed control at 250 g/ha (Lolium perenne (LOLPE) [8]) [%]
CCc1ccc(Oc2cc(F)cc(F)c2C#N)cc1C1=C(O)C(C)(C)OC(C)(C)C1=O [Example A-206] | 30 | 0 | 0 | 10 | 70 | 20 | 30 | 50
CCc1ccc(Oc2cc(F)c(C#N)c(F)c2)cc1C1=C(O)C(C)(C)OC(C)(C)C1=O [Example A-207] | 70 | 30 | 10 | 60 | 100 | 80 | 80 | 90
CCc1ccc(Oc2ccc(C(F)(F)F)c(C#N)c2)cc1C1=C(O)C(C)(C)OC(C)(C)C1=O [Example A-210] | 60 | 30 | 10 | 20 | 100 | 90 | 90 | 100
CCc1ccc(Oc2nc3ccc(OC)cc3s2)cc1C1=C(O)C(C)(C)OC(C)(C)C1=O [Example A-214] | 90 | 50 | 30 | 40 | 100 | 100 | 70 | 100
CCc1ccc(Oc2nc3cc4c(cc3s2)OCCO4)cc1C1=C(O)C(C)(C)OC(C)(C)C1=O [Example A-215] | 20 | 0 | 0 | 0 | 40 | 10 | 0 | 20
CCc1ccc(Oc2nc3c(Cl)c(OC)ccc3s2)cc1C1=C(O)C(C)(C)OC(C)(C)C1=O [Example A-216] | 70 | 30 | 0 | 10 | 80 | 60 | 70 | 70
CCc1ccc(Oc2nc3cc(OC)ccc3s2)cc1C1=C(O)C(C)(C)OC(C)(C)C1=O [Example A-217] | 40 | 30 | 0 | 60 | 70 | 60 | 50 | 60
CCc1ccc(Oc2nc3ccc(OC(F)(F)F)cc3s2)cc1C1=C(O)C(C)(C)OC(C)(C)C1=O [Example A-218] | 50 | 20 | 10 | 20 | 100 | 70 | 100 | 80
CCc1ccc(Oc2nc3ccc(C(F)(F)F)cc3s2)cc1C1=C(O)C(C)(C)OC(C)(C)C1=O [Example A-219] | 90 | 50 | 30 | 80 | 100 | 90 | 100 | 90
CCc1ccc(Oc2nc3cccc(C#N)c3s2)cc1C1=C(O)C(C)(C)OC(C)(C)C1=O [Example A-220] | 30 | 10 | 0 | 10 | 100 | 60 | 30 | 80
CCc1ccc(Oc2nc3c(Cl)cc(Cl)cc3s2)cc1C1=C(O)C(C)(C)OC(C)(C)C1=O [Example A-221] | 70 | 60 | 40 | 60 | 100 | 80 | 50 | 90
